Test results taken from patent publication US9725675B2, “Lipid-soluble formulations containing mixtures of antioxidants” (KEMIN INDUSTRIES, INC., priority 2003, dated 2017).
Several values for one entry are separate records, joined by “and”; a condition that tells them apart may be missing. Equal entries are not always repeated.

Test: Oil Stability Index (OSI) induction time, AOCS Official Method Cd 12b-92, at 98° C.
Conditions: for OSI induction time (h) of formulations based on single antioxidants: 250 ppm of antioxidant formulation (20% active antioxidant in the carrier of Formulation 1), soybean oil, replicates 1-3; for OSI induction time of soybean oil stabilized with synthetic antioxidants: single antioxidants directly dissolved in soybean oil, 98° C., control 14.8 h
Source text: In order to evaluate the oxidative stability of an oil or fat sample an accelerated method is developed to speed up the oxidation process. […] This method is particularly suited to evaluate the effect of antioxidant stabilization of oils and fats.
Before oils and fats start to oxidize a resistance has to be overcome, after which the oxidation accelerates and becomes very rapid. The length of time before this rapid acceleration of oxidation is a measure of the resistance to oxidation and is commonly referred to as the ‘induction period’. In the Oil Stability Index (OSI method) the oxidative stability and the effect of antioxidant stabilization of oils and fats is determined. A stream of purified air is passed through a sample of oil, which is held in a thermostatic bath. In this experimental test the OSI was carried out at a temperature of 98° C. The effluent air from the oil or fat sample is then bubbled through a vessel containing deionized water. The conductivity of the water is continually monitored. The effluent air contains the volatile organic acids formed upon oxidizing the oil. The Oil Stability Index is defined as the point of maximum change of the rate of oxidation, or mathematically as the second derivative of the conductivity curve. As a consequence the induction point is a measure for the oxidative stability of the oil or fat system. The higher the induction point the higher the oxidative stability of the oil.

SMILES	OSI induction time (h) of formulations based on single antioxidants	OSI induction time of soybean oil stabilized with synthetic antioxidants (250 ppm)	OSI induction time of soybean oil stabilized with synthetic antioxidants (500 ppm)	OSI induction time of soybean oil stabilized with synthetic antioxidants (1000 ppm)
Cc1cc(C(C)(C)C)c(O)c(C(C)(C)C)c1 [BHT, butylated hydroxyltoluene]	15.5 h and 15.4 h and 15.0 h	17.9 h	20 h	–
CCCCCCCCOC(=O)c1cc(O)c(O)c(O)c1 [Octyl gallate, octyl gallate]	19.3 h (2×) and 19.5 h	29.6 h	38.6 h	47.6 h
CCCOC(=O)c1cc(O)c(O)c(O)c1 [Propyl gallate, propyl gallate]	19.5 h and 21.5 h and 20.1 h	35.8 h	44.5 h	53.1 h
O=C(O)c1cc(O)c(O)c(O)c1 [Gallic acid, gallic acid]	21.6 h and 20.7 h and 22.0 h	30.6 h	41.8 h	47.4 h
COc1ccc(O)c(C(C)(C)C)c1 [BHA, butylated hydroxyanisole]	14.0 h and 14.2 h and 14.5 h	14.0 h	15.5 h	21.5 h
